Reference: PubChem BioAssay AID179 (DTP/NCI, 2004)
The source made the active and inactive calls.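 How the source made its calls: active means compounds giving half or more protection of infected cells from virus-caused growth loss, again on retest; inactive means the rest.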

System: CEM cells HIV-1 protection, formazan growth assay
Assay: NCI AIDS Antiviral Assay
Conditions: for IC50: measured here: growth of uninfected CEM cells
Summary of the method: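 Five concentrations of each compound were applied to infected and uninfected human CEM cells. Protection from HIV-1 was judged from growth measured with a soluble formazan assay.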

SMILES	EC50 [µM]	IC50 [µM]	outcome
CCCc1cc(=O)oc2c3c(cc(OC(C)C)c12)O[C@H](C)[C@@H](C)[C@H]3O	> 200	12	
CC1=NN(c2ccccc2)C(=O)C1N=Nc1ccc(S(=O)(=O)Nc2ccccn2)cc1 (stereo not given)			inactive
O=C(CC(=O)Nc1ccccc1O)Nc1ccccc1O	> 447	22.4	
COc1cc(C(=O)N(C(=O)N2CCCCC2)c2ccccc2)cc(OC)c1OC	> 200	> 200	
C1=CC2C=CC(C=C1)[PH+]2c1ccccc1.[C-]#[O+].[C-]#[O+].[C-]#[O+].[C-]#[O+].[C-]#[O+].[Cr] (stereo not given)	> 6.76	> 6.76	
CC(O)c1ccc2c(c1)C(O)C[C@H]1[C@](C)(CO)CCC[C@]21C (stereo not given in full)	> 200	141	
N#Cc1sc2nc3ccccc3n2c1N	> 200	28.8	
Cc1cc2c(C)n(Cc3ccc(Cl)cc3Cl)nc2c(C#N)c1C	> 20.9	> 20.9	
Cc1ccc(C2CC3(c4ccccc4)ON=C(c4ccccc4)N3c3ccccc3S2)cc1 (stereo not given)	> 200	41.7	
CN(CCN1C(=O)c2cccc3cc([N+](=O)[O-])cc(c23)C1=O)CCN1C(=O)c2cccc3cc([N+](=O)[O-])cc(c23)C1=O	> 9.12		
O=C1C2C3C=C4c5ccccc5N(c5ccccc5)C4(C2C(=O)N1Cc1ccccc1)C1C(=O)N(Cc2ccccc2)C(=O)C31 (stereo not given)			inactive
COc1cc2c(c(OC)c1OC)-c1ccc(OC)c(=O)cc1[C@@H](NC(=O)c1ccccc1)CC2	> 0.2	0.00339	
OC(c1cnc2sccn12)C(F)(F)Sc1ccccc1 (stereo not given)	> 200	10.2	
NC(=O)NCc1c(C(N)=O)ncn1Cc1ccccc1			inactive
CC(=O)N1C(C(=O)NNc2ccccc2)CSC1c1ccccc1 (stereo not given)	> 200	12.3	
Cc1cc2c(C(C)C)c(O)c(O)c(C=Nc3cccc(Cl)c3)c2c(O)c1-c1c(C)cc2c(C(C)C)c(O)c(O)c(C=Nc3cccc(Cl)c3)c2c1O			inactive
O=C1CC(c2ccc[nH]2)=NN1c1ccccc1	> 200	83.2	
CCCCCCCSc1ccc(/C=C(\C#N)c2ccc(OCCN(CC)CC)cc2)cc1	> 100	1.86	
COc1c(Br)cc2ccccc2c1-c1c(OC)c(Br)cc2ccccc12	17.4	> 100	
CC(C)CN(CC(C)C)CN1C(=O)/C(=C/c2ccc([N+](=O)[O-])cc2)SC1=S	> 200	15.8	

SMILES	EC50 [µM]	IC50 [µM]	outcome
O=C1c2ccccc2C(=O)N1CCc1ncc(-c2ccccc2)[nH]1	> 200	> 200	
CC(C)COC(=O)Sc1ccccc1C(=O)NC(C)C(N)=O (stereo not given)	1.1	115	
CC(=S)NC1C(Oc2ccc3c(C)cc(=O)oc3c2)OC(CO)C(O)C1O (stereo not given)	> 200	> 200	
CC1=NN(C(=O)CC(=O)Nc2ccc(C)cc2)C(=O)C1N=Nc1ccc(C(=O)O)cc1 (stereo not given)	> 200	39.8	
Cc1csc([C@H]2CCC3[C@@H]4CC=C5C[C@@H](O)CC[C@]5(C)C4CC[C@@]32C)n1 (stereo not given in full)	> 67.6	> 67.6	
C=C(C)CC1(O[Si](C)(C)C)C(=O)C(OCC)=C1OCC (stereo not given)	> 200	> 200	
CNC(=O)c1ccc(C(=O)NCCCCCN(O)C(=O)CCC(=O)NCCCCCN(O)C(=O)CCC(=O)NCCCCCN(O)C(C)=O)c(O)c1O	> 100	69.2	
O=C(O)CCC(CCC(=O)O)(C(=O)O)c1ccccc1	> 5620	4470	
CCOC(=O)/C(C(=S)NC)=C(/N)N1CCCC1	> 200	> 200	
O=[N+]([O-])C(Cl)C(Cl)C(Cl)=C(Cl)Cl (stereo not given)	> 200	> 200	
O=S(=O)(SC(S(=O)(=O)c1ccccc1)S(=O)(=O)c1ccccc1)c1ccccc1	> 537	355	
O=C1c2ccccc2-c2ccccc2C(=O)C1(Br)Br			inactive
CN(C)c1cccc(/C=C(\C#N)c2ccccc2)c1	> 200	0.339	
O=C1Sc2cc3c(cc2C(=O)N2CCCC12)OCO3 (stereo not given)	> 182	129	
Cc1cc(NS(=O)(=O)c2ccc(NC(=O)c3ccc(Cl)c4c(Nc5ccc(S(=O)(=O)N=C(N)N)cc5)c5ccccc5nc34)cc2)no1	> 51.3	> 51.3	
O=C1c2cccc3cccc(c23)C(=O)N1CCO	> 200	13.8	
CC(=O)O[C@@H]1CCN(C(=O)C(NC(=O)OC(C)(C)C)C(C)C)[C@@H]1C(O)CC(=O)O (stereo not given in full)	> 200	> 200	
S=C(N/N=C/c1ccccn1)Nc1ccc(Cl)cc1	> 2	0.0891	
CCOC(=O)CCc1c(C)c2ccc(O)cc2oc1=O	> 200	> 200	
Nn1c(-c2ccccc2)nn(C(=O)c2ccccc2)c1=O	> 200	> 200	

SMILES	EC50 [µM]	IC50 [µM]	outcome
CCOC1(OCC)C([N+](=O)[O-])=CC(=[N+]([O-])O)C=C1[N+](=O)[O-]	> 724	204	
C=CCN=C([S-])Nc1cccc(C(=O)O)c1.[Au+].[Na+]			inactive
N/N=C(\C(=O)Nc1ccc([N+](=O)[O-])cc1)C(C1=Nc2cc([N+](=O)[O-])ccc2NC1)[N+](=O)[O-] (stereo not given)	> 30.9	> 30.9	
COc1ccc2cc1Oc1ccc(cc1)CC1=NCCc3cc(OC)c(cc31)Oc1c(OC)c(OC)c(OC)c3c1[C@H](C2)N(C)CC3			inactive
O=C1CC2(CCC(O)(c3ccccc3)C(C(=O)c3ccccc3)C2)C(=O)c2ccccc2N1 (stereo not given)	> 200	> 200	
COc1ccc(Cl)cc1C(=O)c1cc(Cl)cc(S(=O)(=O)O)c1OC	> 617	427	
OC1(c2ccccc2)c2ccccc2NC2=NCCN21 (stereo not given)	> 200	110	
CCCCS/C(=C(/C#N)C(N)=O)c1cc2c([nH]1)CCCC2			inactive
CC1CN(c2cc3c(cc2F)c(=O)c(C(=O)O)cn3-c2ccc(F)cn2)CC(C)N1 (stereo not given)	> 200	> 200	
CC1(Br)C(=O)NC(=O)N([C@H]2C[C@H](O)[C@@H](CO)O2)C1N=[N+]=[N-] (stereo not given in full)	145	> 200	
O=[N+]1[C@H](c2ccccc2)[C@H](c2ccccc2)N1[O-]	> 200	11.5	
O=C1c2ccccc2C(=O)c2c1ccc(O)c2O	> 72.4	42.7	
O[C@]12c3ccccc3C1CCCCC2N1CCOCC1 (stereo not given in full)	> 200	> 200	
c1ccc(P(OCCCCOP(c2ccccc2)c2ccccc2)c2ccccc2)cc1	> 200	85.1	
O=S1OCC2(CO1)COS(=O)OC2 (stereo not given)	> 200	91.2	
CCCCCCCC(=O)OCC1OC(n2cc(F)c(=O)[nH]c2=O)C(N)C(O)C1O (stereo not given)	> 309	> 309	
CC(CCc1nc2ccccc2o1)C1CCC2C3CC[C@@H]4C[C@H](O)CC[C@]4(C)C3C[C@H](O)[C@]12C (stereo not given in full)	> 50.1	7.24	
COc1ccc(CCn2nccc2C)cc1	> 200	> 200	
CN(C)CC/C(=N\Nc1ccc([N+](=O)[O-])cc1)c1ccccc1			inactive
[O]=[Sb][c]1ccc(C(=O)O)cc1	> 200	26.3	
